Results as given in patent publication US6346261B1, “Pesticidal composition” (priority 1997, dated 2002).

System: eggs of cat flea
Assay: Hatching inhibition of cat flea eggs on treated filter paper (Test Example 1)
Assay type: in vivo, cat flea (Ctenocephalides felis)
Conditions: 26° C., 95% humidity, 5 days, corrected against non-treated hatching ratio 92.4%
Experimental: Each of pyriproxyfen, 1S,3S,4S,6R-carane-3,4-diol and a mixture thereof was diluted with acetone, added dropwise to a filter paper (3.8 cm in diameter) and dried. About 20 eggs (within 24 hours after laid) of cat flea were set on the filter paper prepared above. The filter paper was held in a plastic plate, kept 26° C. of temperature and 95% of humidity for 5 days and hatching was observed.
Hatching inhibition ratio (%) in Table represents a corrected inhibition ratio (%) which is calculated by the following:
Hatching inhibition ratio (%)={(C−T)/C}×100
wherein C is a hatching ratio (92.4%) of flea at non-treated area and T is a hatching ratio of flea at treated area.
In the table, PY means pyriproxyfen and CA means 1S,3S,4S,6R-carane-3,4-diol. The treated dosage unit is mg/m^2.

Row | SMILES | Hatching inhibition ratio (%) (treated dosage 0.1 mg/m^2 on filter paper) | Hatching inhibition ratio (%) (treated dosage 10 mg/m^2 on filter paper) | Hatching inhibition ratio (%) (treated dosage 100 mg/m^2 on filter paper)
1 | CC(COc1ccc(Oc2ccccc2)cc1)Oc1ccccn1 (stereo not drawn) [PY, pyriproxyfen] | 58.1 | – | –
2 | CC1(C)[C@@H]2C[C@H](O)[C@@](C)(O)C[C@@H]21 [CA, 1S,3S,4S,6R-carane-3,4-diol] | – | 3.1 | 12.1
